According to patent publication US9670227B2, “Thienopyrimidine derivatives, a process for their preparation and pharmaceutical compositions containing them” (LES LABORATOIRES SERVIER, priority 2013, dated 2017):

These compounds were tested against Mcl-1 protein (UniProtKB primary accession number: Q07820) (Homo sapiens, UniProt Q07820) (assay: Inhibition of Mcl-1 by fluorescence polarisation, Method 1). Settings: fluorescence polarisation; Method 1, or Method 2; read-out: IC50 (M) Mcl-1 FP.
Type: binding
Procedure, shortened: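 Compounds were tested as 11-point serial dilutions at 5% final DMSO against 5 nM Mcl-1 with 1 nM fluorescein-labelled ligand in 10 mM HEPES, 150 mM NaCl, 0.05% Tween 20, pH 7.4. Relative binding potency was read by fluorescence polarisation.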

Mcl-1 protein, sequence (Q07820 whole entry): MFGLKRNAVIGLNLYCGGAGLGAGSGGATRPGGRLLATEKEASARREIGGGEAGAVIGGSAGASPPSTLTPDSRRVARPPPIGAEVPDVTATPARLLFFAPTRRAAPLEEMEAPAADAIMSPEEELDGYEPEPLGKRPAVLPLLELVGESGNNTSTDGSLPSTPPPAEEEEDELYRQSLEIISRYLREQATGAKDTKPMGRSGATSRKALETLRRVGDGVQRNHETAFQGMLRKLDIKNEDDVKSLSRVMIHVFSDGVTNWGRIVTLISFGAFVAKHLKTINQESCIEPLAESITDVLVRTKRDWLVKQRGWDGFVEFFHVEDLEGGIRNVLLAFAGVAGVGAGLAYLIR

Row | IC50 | SMILES
1 | 1.2e-08 M | COc1nccc(COc2ccccc2CC(Oc2ncnc3sc(-c4ccc(F)c(OCCN5CCOCC5)c4)c(-c4ccc(OC)c(Cl)c4C)c23)C(=O)O)n1 [Example 700, (2R)-2-{[(5Sa)-5-(3-chloro-4-methoxy-2-methylphenyl)-6-{4-fluoro-3-[2-(morpholin-4-yl)ethoxy]phenyl}thieno[2,3-d]pyrimidin-4-yl]oxy}-3-{2-[(2-methoxypyrimidin-4-yl)methoxy]phenyl}propanoic acid]
2 | 9.4e-09 M | COc1nccc(COc2ccccc2CC(Oc2ncnc3sc(-c4ccc(F)c(OCCN(C)C)c4)c(-c4ccc(OC)c(Cl)c4C)c23)C(=O)O)n1 [Example 702, (2R)-2-{[(5Sa)-5-(3-chloro-4-methoxy-2-methylphenyl)-6-{3-[2-(dimethylamino)ethoxy]-4-fluorophenyl}thieno[2,3-d]pyrimidin-4-yl]oxy}-3-{2-[(2-methoxypyrimidin-4-yl)methoxy]phenyl}propanoic acid]
3 | 4.1e-07 M | Cc1c(-c2c(-c3cnn(C)c3)sc3ncnc(OC(Cc4ccccc4)C(=O)O)c23)ccc(OCCN2CCOCC2)c1Cl [Example 712, (2R)-2-{[(5Sa)-5-{3-chloro-2-methyl-4-[2-(morpholin-4-yl)ethoxy]phenyl}-6-(1-methyl-1H-pyrazol-4-yl)thieno[2,3-d]pyrimidin-4-yl]oxy}-3-phenylpropanoic acid]
4 | 1.6e-08 M | COc1ccccc1CC(Oc1ncnc2sc(-c3cccc(OCCN4CCN(C)CC4)c3)c(-c3ccc(OC)c(Cl)c3C)c12)C(=O)O [Example 713, (2R)-2-{[(5Sa)-5-(3-chloro-4-methoxy-2-methylphenyl)-6-{3-[2-(4-methylpiperazin-1-yl)ethoxy]phenyl}thieno[2,3-d]pyrimidin-4-yl]oxy}-3-(2-methoxyphenyl)propanoic acid]
5 | 1.6e-09 M | COc1ccccc1CC(Oc1ncnc2sc(-c3ccsc3)c(-c3ccc(O)c(Cl)c3C)c12)C(=O)O [Example 715, (2R)-2-{[(5Sa)-5-(3-chloro-4-hydroxy-2-methylphenyl)-6-(thiophen-3-yl)thieno[2,3-d]pyrimidin-4-yl]oxy}-3-(2-methoxyphenyl)propanoic acid]
6 | 7.6e-08 M | C=Cc1sc2ncnc(OC(Cc3ccccc3)C(=O)O)c2c1-c1cccc(Cl)c1C [Example 721, (2R)-2-{[(5Sa)-5-(3-chloro-2-methylphenyl)-6-ethenylthieno[2,3-d]pyrimidin-4-yl]oxy}-3-phenylpropanoic acid]
7 | 1.18e-09 M | Cc1c(-c2c(-c3ccc(F)cc3)sc3ncnc(O[C@H](Cc4ccccc4OCc4ccnc(-c5ccccc5CO)n4)C(=O)O)c23)ccc(OCCN2CCN(C)CC2)c1Cl [Example 728, (2R)-2-{[(5Sa)-5-{3-chloro-2-methyl-4-[2-(4-methylpiperazin-1-yl)ethoxy]phenyl}-6-(4-fluorophenyl)thieno[2,3-d]pyrimidin-4-yl]oxy}-3-[2-({2-[2-(hydroxymethyl)phenyl]pyrimidin-4-yl}methoxy)phenyl]propanoic acid]
8 | 9.48e-10 M | COc1cnc(C)cc1-c1nccc(COc2ccccc2CC(Oc2ncnc3sc(-c4ccc(F)cc4)c(-c4ccc(OCCN5CCN(C)CC5)c(Cl)c4C)c23)C(=O)O)n1 [Example 734, (2R)-2-{[(5Sa)-5-{3-chloro-2-methyl-4-[2-(4-methylpiperazin-1-yl)ethoxy]phenyl}-6-(4-fluorophenyl)thieno[2,3-d]pyrimidin-4-yl]oxy}-3-(2-{[2-(5-methoxy-2-methylpyridin-4-yl)pyrimidin-4-yl]methoxy}phenyl)propanoic acid]
9 | 2.58e-09 M | Cc1c(-c2c(-c3ccc(F)cc3)sc3ncnc(OC(Cc4ccccc4OCc4ccnn4Cc4ccncc4)C(=O)O)c23)ccc(OCCN2CCN(C)CC2)c1Cl [Example 736, (2R)-2-{[(5Sa)-5-{3-chloro-2-methyl-4-[2-(4-methylpiperazin-1-yl)ethoxy]phenyl}-6-(4-fluorophenyl)thieno[2,3-d]pyrimidin-4-yl]oxy}-3-(2-{[1-(pyridin-4-ylmethyl)-1H-pyrazol-5-yl]methoxy}phenyl)propanoic acid]
10 | 1.43e-08 M | COc1ccccc1-n1ccc(COc2ccccc2CC(Oc2ncnc3sc(-c4ccc(F)cc4)c(-c4ccc(OCCN5CCN(C)CC5)c(Cl)c4C)c23)C(=O)O)n1 [Example 737, (2R)-2-{[(5Sa)-5-{3-chloro-2-methyl-4-[2-(4-methylpiperazin-1-yl)ethoxy]phenyl}-6-(4-fluorophenyl)thieno[2,3-d]pyrimidin-4-yl]oxy}-3-(2-{[1-(2-methoxyphenyl)-1H-pyrazol-3-yl]methoxy}phenyl)propanoic acid]
11 | 5.04e-09 M | COc1ccccc1Cn1ccc(COc2ccccc2CC(Oc2ncnc3sc(-c4ccc(F)cc4)c(-c4ccc(OCCN5CCN(C)CC5)c(Cl)c4C)c23)C(=O)O)n1 [Example 740, (2R)-2-{[(5Sa)-5-{3-chloro-2-methyl-4-[2-(4-methylpiperazin-1-yl)ethoxy]phenyl}-6-(4-fluorophenyl)thieno[2,3-d]pyrimidin-4-yl]oxy}-3-(2-{[1-(2-methoxybenzyl)-1H-pyrazol-3-yl]methoxy}phenyl)propanoic acid]
12 | 1.21e-08 M | Cc1c(-c2c(-c3ccc(F)cc3)sc3ncnc(OC(Cc4ccccc4OCc4ccnc(-c5ccccc5F)n4)C(=O)O)c23)ccc(OCCN(C)C2CC2)c1Cl [Example 748, (2R)-2-{[(5Sa)-5-(3-chloro-4-{2-[cyclopropyl(methyl)amino]ethoxy}-2-methylphenyl)-6-(4-fluorophenyl)thieno[2,3-d]pyrimidin-4-yl]oxy}-3-(2-{[2-(2-fluorophenyl)pyrimidin-4-yl]methoxy}phenyl)propanoic acid]
13 | 8.24e-09 M | Cc1c(-c2c(-c3ccc(F)cc3)sc3ncnc(O[C@H](Cc4ccccc4OCc4ccnc(-c5ccccc5O)n4)C(=O)O)c23)ccc(OCCN2CCNCC2)c1Cl [Example 749, (2R)-2-{[(5Sa)-5-{3-chloro-2-methyl-4-[2-(piperazin-1-yl)ethoxy]phenyl}-6-(4-fluorophenyl)thieno[2,3-d]pyrimidin-4-yl]oxy}-3-(2-{[2-(2-hydroxyphenyl)pyrimidin-4-yl]methoxy}phenyl)propanoic acid]
14 | 7.26e-09 M | Cc1c(-c2c(-c3ccc(OCc4ccn(C)n4)cc3)sc3ncnc(OC(Cc4ccccc4OCC(F)(F)F)C(=O)O)c23)ccc(OCCN2CCN(C)CC2)c1Cl [Example 780, (2R)-2-[((5Sa)-5-{3-chloro-2-methyl-4-[2-(4-methylpiperazin-1-yl)ethoxy]phenyl}-6-{4-[(1-methyl-1H-pyrazol-3-yl)methoxy]phenyl}thieno[2,3-d]pyrimidin-4-yl)oxy]-3-[2-(2,2,2-trifluoroethoxy)phenyl]propanoic acid]
15 | 3.85e-09 M | COc1ccccc1-c1nccc(COc2ccccc2CC(Oc2ncnc3sc(C#CCCN4CCOCC4)c(-c4ccc(OCCN5CCN(C)CC5)c(Cl)c4C)c23)C(=O)O)n1 [Example 785, (2R)-2-[((5Sa)-5-{3-chloro-2-methyl-4-[2-(4-methylpiperazin-1-yl)ethoxy]phenyl}-6-[4-(morpholin-4-yl)but-1-yn-1-yl]thieno[2,3-d]pyrimidin-4-yl)oxy]-3-(2-{[2-(2-methoxyphenyl)pyrimidin-4-yl]methoxy}phenyl)propanoic acid]
16 | 4.95e-09 M | COc1ccccc1-c1nccc(COc2ccccc2CC(Oc2ncnc3sc(C#CCN4CCOCC4)c(-c4ccc(OCCN5CCN(C)CC5)c(Cl)c4C)c23)C(=O)O)n1 [Example 786, (2R)-2-[((5Sa)-5-{3-chloro-2-methyl-4-[2-(4-methylpiperazin-1-yl)ethoxy]phenyl}-6-[3-(morpholin-4-yl)prop-1-yn-1-yl]thieno[2,3-d]pyrimidin-4-yl)oxy]-3-(2-{[2-(2-methoxyphenyl)pyrimidin-4-yl]methoxy}phenyl)propanoic acid]
17 | 2.26e-06 M | CCOC(=O)C(Cc1ccccc1OCc1ccnn1C(C)(C)C)Oc1ncnc2sc(-c3ccc(F)cc3)c(-c3ccc(OCCN4CCN(C)CC4)c(Cl)c3C)c12 [Example 791, ethyl (2R)-3-{2-[(1-tert-butyl-1H-pyrazol-5-yl)methoxy]phenyl}-2-{[(5Sa)-5-{3-chloro-2-methyl-4-[2-(4-methylpiperazin-1-yl)ethoxy]phenyl}-6-(4-fluorophenyl)thieno[2,3-d]pyrimidin-4-yl]oxy}propanoate]
18 | 6.44e-06 M | CC#Cc1sc2ncnc(OC(Cc3ccccc3OCc3ccnn3C(C)(C)C)C(=O)OCC)c2c1-c1ccc(OCCN2CCN(C)CC2)c(Cl)c1C [Example 792, ethyl (2R)-3-{2-[(1-tert-butyl-1H-pyrazol-5-yl)methoxy]phenyl}-2-{[(5Sa)-5-{3-chloro-2-methyl-4-[2-(4-methylpiperazin-1-yl)ethoxy]phenyl}-6-(prop-1-yn-1-yl)thieno[2,3-d]pyrimidin-4-yl]oxy}propanoate]

Same assay, conditions: partial inhibitors; @ 1 uM test compound

Row | percentage fluorescence polarisation inhibition, Mcl-1 FP | SMILES
19 | 28.5% @ 1 uM | COc1nccc(COc2ccccc2C[C@@H](Oc2ncnc3sc(-c4ccc(F)c(OCCN5CCOCC5)c4)c(-c4ccc(OC)c(Cl)c4C)c23)C(=O)O)n1 [Example 699, (2R)-2-{[(5Ra)-5-(3-chloro-4-methoxy-2-methylphenyl)-6-{4-fluoro-3-[2-(morpholin-4-yl)ethoxy]phenyl}thieno[2,3-d]pyrimidin-4-yl]oxy}-3-{2-[(2-methoxypyrimidin-4-yl)methoxy]phenyl}propanoic acid]
20 | 40.75% @ 1 uM | COc1nccc(COc2ccccc2C[C@@H](Oc2ncnc3sc(-c4ccc(F)c(OCCN(C)C)c4)c(-c4ccc(OC)c(Cl)c4C)c23)C(=O)O)n1 [Example 701, (2R)-2-{[(5Ra)-5-(3-chloro-4-methoxy-2-methylphenyl)-6-{3-[2-(dimethylamino)ethoxy]-4-fluorophenyl}thieno[2,3-d]pyrimidin-4-yl]oxy}-3-{2-[(2-methoxypyrimidin-4-yl)methoxy]phenyl}propanoic acid]
